Here are results for 31 compounds from patent US20090155209A1, “NOVEL MACROCYCLIC INHIBITORS OF HEPATITIS C VIRUS REPLICATION” (priority 2007, published 2009).

The target in experiment [1] is T1, NS3-NS4 (Hepatitis C virus genotype 1a, UniProt P27958). Nature of the experiment: cell-based. The note with it: EC50, NS3-NS4 activity.
Experiment [2] has as its target T1, NS3-NS4. Kind of experiment: NS3-NS4 activity, IC50 (Example 37, Table 8). It is filed as biochemical.

T1 sequence (P27958 1027-1657): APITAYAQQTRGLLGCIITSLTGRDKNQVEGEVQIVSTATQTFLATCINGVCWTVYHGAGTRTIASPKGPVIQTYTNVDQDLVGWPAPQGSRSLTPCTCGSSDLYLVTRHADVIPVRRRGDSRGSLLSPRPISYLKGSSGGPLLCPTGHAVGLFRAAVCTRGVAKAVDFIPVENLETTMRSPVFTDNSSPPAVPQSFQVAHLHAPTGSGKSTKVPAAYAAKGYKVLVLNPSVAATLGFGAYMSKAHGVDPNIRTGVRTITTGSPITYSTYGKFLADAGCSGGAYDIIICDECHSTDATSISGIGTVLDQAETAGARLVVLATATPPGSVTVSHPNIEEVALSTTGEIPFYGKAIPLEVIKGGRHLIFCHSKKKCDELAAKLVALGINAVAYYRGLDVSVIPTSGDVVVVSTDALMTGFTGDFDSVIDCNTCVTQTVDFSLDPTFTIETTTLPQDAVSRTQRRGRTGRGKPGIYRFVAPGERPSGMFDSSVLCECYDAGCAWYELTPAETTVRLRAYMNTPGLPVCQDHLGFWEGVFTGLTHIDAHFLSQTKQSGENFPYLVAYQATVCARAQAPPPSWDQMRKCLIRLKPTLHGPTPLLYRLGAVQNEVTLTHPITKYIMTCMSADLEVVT
T1 sequence (P27958 1658-1711): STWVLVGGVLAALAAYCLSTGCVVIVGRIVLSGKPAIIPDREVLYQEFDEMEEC

Usually EC50 stands for the concentration needed to bring the measured effect to its halfway point. A lower EC50 goes with an effect from little substance. For orientation: IC50 means the midpoint of a concentration-inhibition curve. Lower therefore signals greater potency. Compound `CC(C)CN(C)C(=O)N[C@H]1CCCCC/C=C\[C@@H]2C[C@@]2(C(=O)NS(=O)(=O)C2CC2)NC(=O)[C@@H]2C[C@@H](OC(=O)N3Cc4cccc(F)c4C3)CN2C1=O` [Compound 437] had an EC50 in experiment [1] of less than 100 nM. The IC50 in experiment [2] was less than 100 nM.

In turn, `CC(C)(C)OC(=O)N[C@H]1CCCCC/C=C\[C@@H]2C[C@@]2(C(=O)NS(=O)(=O)c2cc(Cl)sc2Cl)NC(=O)[C@@H]2C[C@@H](OC(=O)N3CCc4ccccc4C3)CN2C1=O` [Compound 357] yielded an EC50 in experiment [1] of 100 to 1000 nM. This compound also came in with an IC50 in experiment [2] of 100 to 1000 nM.

Compound `CC(C)(C)OC(=O)N[C@H]1CCCCC/C=C\[C@@H]2C[C@@]2(C(=O)NOCCO)NC(=O)[C@@H]2C[C@@H](OC(=O)N3Cc4cccc(F)c4C3)CN2C1=O` [Compound 106] showed an EC50 in experiment [1] of 100 to 1000 nM. In experiment [2], this compound returned an IC50 of less than 100 nM.

Compound `CN(Cc1ccccc1)C(=O)N[C@H]1CCCCC/C=C\[C@@H]2C[C@@]2(C(=O)NS(=O)(=O)C2CC2)NC(=O)[C@@H]2C[C@@H](OC(=O)N3Cc4cccc(F)c4C3)CN2C1=O` [Compound 421] displayed an EC50 in experiment [1] of less than 100 nM. In experiment [2], the IC50 is less than 100 nM.

`CC(C)CONC(=O)[C@@]12C[C@H]1CCCCCCC[C@H](NC(=O)OC(C)(C)C)C(=O)N1C[C@H](OC(=O)N3Cc4cccc(F)c4C3)C[C@H]1C(=O)N2` [Compound 814] returned an EC50 in experiment [1] of less than 100 nM. In experiment [2], this compound had an IC50 of less than 100 nM.

As to `Cc1ccc(C)c(S(=O)(=O)NC(=O)[C@@]23C[C@H]2/C=C\CCCCC[C@H](NC(=O)OC(C)(C)C)C(=O)N2C[C@H](OC(=O)N4Cc5cccc(F)c5C4)C[C@H]2C(=O)N3)c1` [Compound 313], in experiment [1], the EC50 was less than 100 nM. The same compound showed an IC50 in experiment [2] of less than 100 nM.

The compound `O=C(N[C@H]1CCCCC/C=C\[C@@H]2C[C@@]2(C(=O)NS(=O)(=O)C2CC2)NC(=O)[C@@H]2C[C@@H](OC(=O)N3Cc4cccc(F)c4C3)CN2C1=O)OCC1CC1` [Compound 434] yielded an EC50 in experiment [1] of less than 100 nM. The compound also had an IC50 in experiment [2] of less than 100 nM.

`CC(C)(C)OC(=O)N[C@H]1CCCCCCC[C@@H]2C[C@@]2(C(=O)NOc2ccc(Cl)cc2)NC(=O)[C@@H]2C[C@@H](OC(=O)N3Cc4cccc(F)c4C3)CN2C1=O` [Compound 809] registered an EC50 in experiment [1] of 1000 to 10000 nM. In experiment [2], the IC50 is less than 100 nM.

Compound `Cc1csc(N[C@H]2CCCCC/C=C\[C@@H]3C[C@@]3(C(=O)NS(=O)(=O)C3CC3)NC(=O)[C@@H]3C[C@@H](OC(=O)N4Cc5cccc(F)c5C4)CN3C2=O)n1` [Compound 227] registered an EC50 in experiment [1] of less than 100 nM. This compound also displayed a 50% inhibitory concentration (IC50) in experiment [2] of less than 100 nM.

With `O=C(N[C@H]1CCCCC/C=C\[C@@H]2C[C@@]2(C(=O)NS(=O)(=O)C2CC2)NC(=O)[C@@H]2C[C@@H](OC(=O)N3Cc4cccc(Cl)c4C3)CN2C1=O)O[C@@H]1CCOC1` [Compound 402, (2R,6S,13aS,14aR,16aS,Z)-14a-(cyclopropylsulfonylcarbamoyl)5,16-dioxo-6-(((R)-tetrahydrofuran-3-yloxy)carbonylamino)-1,2,3,5,6,7,8,9,10,11,13a,14,14a,15,16,16a-hexadecahydrocyclopropa[e]pyrrolo[1,2-a][1,4]diazacyclopentadecin-2-yl 4-chloroisoindoline-2-carboxylate], in experiment [1], the EC50 was less than 100 nM. The same compound displayed an IC50 in experiment [2] of less than 100 nM.

Regarding `CC(C)(C)OC(=O)N[C@H]1CCCCC/C=C\[C@@H]2C[C@@]2(C(=O)NS(=O)(=O)c2ccc(F)cc2F)NC(=O)[C@@H]2C[C@@H](OC(=O)N3Cc4cccc(F)c4C3)CN2C1=O` [Compound 310], the EC50 in experiment [1] was less than 100 nM. Further, the IC50 in experiment [2] was less than 100 nM.

For the compound `Cc1ccccc1S(=O)(=O)NC(=O)[C@@]12C[C@H]1/C=C\CCOCC[C@H](NC(=O)OC(C)(C)C)C(=O)N1C[C@H](OC(=O)N3Cc4cccc(Cl)c4C3)C[C@H]1C(=O)N2` [Compound 321, (2R,6S,13aS,14aR,16aSZ)-6-(tert-butoxycarbonylamino)-5,16-dioxo-14a-(o-tolylsulfonylcarbamoyl)-2,3,5,6,7,8,10,11,13a,14,14a,15,16,16a-tetradecahydro-1H-cyclopropa[j]pyrrolo[1,2-f][1,6,9]oxadiazacyclopentadecin-2-yl 4-chloroisoindoline-2-carboxylate], in experiment [1], the EC50 was less than 100 nM. Also, the concentration for half-maximal inhibition (IC50) in experiment [2] is less than 100 nM.

As for `Cc1ccc(S(=O)(=O)NC(=O)[C@@]23C[C@H]2/C=C\CCCCC[C@H](NC(=O)OC(C)(C)C)C(=O)N2C[C@H](OC(=O)N4Cc5cccc(F)c5C4)C[C@H]2C(=O)N3)cc1` [Compound 318], in experiment [1], the EC50 is less than 100 nM. The compound also displayed an IC50 in experiment [2] of less than 100 nM.

On to `CC(C)(C)ONC(=O)[C@@]12C[C@H]1CCCCCCC[C@H](NC(=O)OC(C)(C)C)C(=O)N1C[C@H](OC(=O)N3Cc4cccc(F)c4C3)C[C@H]1C(=O)N2` [Compound 815], for which the EC50 in experiment [1] was less than 100 nM. For the same compound, in experiment [2], the IC50 was less than 100 nM.

As for `Cc1ccc(ONC(=O)[C@@]23C[C@H]2CCCCCCC[C@H](NC(=O)OC(C)(C)C)C(=O)N2C[C@H](OC(=O)N4Cc5cccc(F)c5C4)C[C@H]2C(=O)N3)cc1` [Compound 808], in experiment [1], the EC50 was 1000 to 10000 nM. In addition, the IC50 in experiment [2] is less than 100 nM.

In the case of `CC(C)(C)OC(=O)N[C@H]1CCCCC/C=C\[C@@H]2C[C@@]2(C(=O)NS(=O)(=O)c2cccc(C(F)(F)F)c2)NC(=O)[C@@H]2C[C@@H](OC(=O)N3Cc4cccc(F)c4C3)CN2C1=O` [Compound 308], the EC50 in experiment [1] was less than 100 nM. The compound also had an IC50 in experiment [2] of less than 100 nM.

Consider `O=C1N[C@]2(C(=O)NS(=O)(=O)C3CC3)C[C@H]2/C=C\CCCCC[C@H](Nc2nc(-c3ccc(F)cn3)cs2)C(=O)N2C[C@H](OC(=O)N3Cc4cccc(F)c4C3)C[C@@H]12` [Compound 225], for which the EC50 in experiment [1] is less than 100 nM. The IC50 in experiment [2] is less than 100 nM.

Compound `CC(C)(C)OC(=O)N[C@H]1CCCCC/C=C\[C@@H]2C[C@@]2(C(=O)NS(=O)(=O)c2ccc(F)c(F)c2)NC(=O)[C@@H]2C[C@@H](OC(=O)N3Cc4cccc(F)c4C3)CN2C1=O` [Compound 315] yielded an EC50 in experiment [1] of less than 100 nM. The compound further displayed an IC50 in experiment [2] of less than 100 nM.

With `CC(C)(OC(=O)N[C@H]1CCCCC/C=C\[C@@H]2C[C@@]2(C(=O)NS(=O)(=O)C2CC2)NC(=O)[C@@H]2C[C@@H](OC(=O)N3Cc4cccc(F)c4C3)CN2C1=O)C1CC1` [Compound 443], in experiment [1], the EC50 is less than 100 nM. Also, in experiment [2], the IC50 was less than 100 nM.

Compound `CC(C)(C)O[C@@H]1C[C@H]2C(=O)N[C@]3(C(=O)NS(=O)(=O)C4CC4)C[C@H]3/C=C\CCCCC[C@H](Nc3ncc(-c4ccccc4)s3)C(=O)N2C1` [Compound 202, (2R,6S,13aS,14aR,16aS,Z)-2-tert-butoxy-N-(cyclopropylsulfonyl)-5,16-dioxo-6-(5-phenylthiazol-2-ylamino)-1,2,3,5,6,7,8,9,10,11,13a,14,14a,15,16,16a-hexadecahydrocyclopropa[e]pyrrolo[1,2-a][1,4]diazacyclopentadecine-14a-carboxamide] registered a concentration for a half-maximal effect (EC50) in experiment [1] of 100 to 1000 nM. This compound also gave an IC50 in experiment [2] of less than 100 nM.

`CC(C)(C)OC(=O)N[C@H]1CCCCC/C=C\[C@@H]2C[C@@]2(C(=O)NS(=O)(=O)Cc2ccc(F)cc2)NC(=O)[C@@H]2C[C@@H](OC(=O)N3Cc4cccc(F)c4C3)CN2C1=O` [Compound 509]: the EC50 in experiment [1] was 100 to 1000 nM. This compound also displayed an IC50 in experiment [2] of less than 100 nM.

The compound `CC(C)(C)OC(=O)N[C@H]1CCCCC/C=C\[C@@H]2C[C@@]2(C(=O)NS(=O)(=O)c2cc(Cl)cs2)NC(=O)[C@@H]2C[C@@H](OC(=O)N3Cc4cccc(F)c4C3)CN2C1=O` [Compound 536] displayed an EC50 in experiment [1] of less than 100 nM. The compound also showed an IC50 in experiment [2] of less than 100 nM.

`CC(C)(C)OC(=O)N[C@H]1CCCCC/C=C\[C@@H]2C[C@@]2(C(=O)NS(=O)(=O)Cc2c(Cl)cccc2Cl)NC(=O)[C@@H]2C[C@@H](OC(=O)N3Cc4cccc(F)c4C3)CN2C1=O` [Compound 527] gave an EC50 in experiment [1] of less than 100 nM. For the same compound, in experiment [2], the IC50 was less than 100 nM.

In the case of `CC(C)(C)OC(=O)N[C@H]1CCCCC/C=C\[C@@H]2C[C@@]2(C(=O)NS(=O)(=O)Cc2c(F)cccc2F)NC(=O)[C@@H]2C[C@@H](OC(=O)N3Cc4cccc(F)c4C3)CN2C1=O` [Compound 521], in experiment [1], the EC50 was less than 100 nM. Besides, the IC50 in experiment [2] was less than 100 nM.

In experiment [1], `COc1ccc(S(=O)(=O)NC(=O)[C@@]23C[C@H]2CCCCCCC[C@H](NC(=O)OC(C)(C)C)C(=O)N2C[C@H](OC(=O)N4Cc5cccc(F)c5C4)C[C@H]2C(=O)N3)cn1` [Compound 638] had an EC50 of less than 100 nM. In experiment [2], this compound had an IC50 of less than 100 nM.

In experiment [1], `CC(C)(C)OC(=O)N[C@H]1CCCCC/C=C\[C@@H]2C[C@@]2(C(=O)NS(=O)(=O)c2ccc(Cl)cc2)NC(=O)[C@@H]2C[C@@H](OC(=O)N3Cc4cccc(F)c4C3)CN2C1=O` [Compound 333] displayed an EC50 of less than 100 nM. For the same compound, in experiment [2], the IC50 was less than 100 nM.

In experiment [1], `O=C(N[C@H]1CCCCC/C=C\[C@@H]2C[C@@]2(C(=O)NS(=O)(=O)C2CC2)NC(=O)[C@@H]2C[C@@H](OC(=O)N3Cc4cccc(Cl)c4C3)CN2C1=O)OC1CCC1` [Compound 433] came in with an EC50 of less than 100 nM. The same compound displayed a half-inhibitory concentration (IC50) in experiment [2] of less than 100 nM.

In the case of `CC(C)(C)OC(=O)N[C@H]1CCCCCCC[C@@H]2C[C@@]2(C(=O)NS(=O)(=O)c2ccc(Cl)cc2)NC(=O)[C@@H]2C[C@@H](OC(=O)N3Cc4cccc(F)c4C3)CN2C1=O` [Compound 604], the EC50 in experiment [1] was less than 100 nM. Besides, the IC50 in experiment [2] is less than 100 nM.

In experiment [1], `CCC(C)(C)OC(=O)N[C@H]1CCOCC/C=C\[C@@H]2C[C@@]2(C(=O)NS(=O)(=O)c2ccc(Cl)cc2)NC(=O)[C@@H]2C[C@@H](OC(=O)N3Cc4cccc(Cl)c4C3)CN2C1=O` [Compound 325, (2R,6S,13aS,14aR,16aS,Z)-14a-(4-chlorophenylsulfonylcarbamoyl)-5,16-dioxo-6-(tert-pentyloxycarbonylamino)-2,3,5,6,7,8,10,11,13a,14,14a,15,16,16a-tetradecahydro-1H-cyclopropa[j]pyrrolo[1,2-f][1,6,9]oxadiazacyclopentadecin-2-yl 4-chloroisoindoline-2-carboxylate] had a half-maximal effective concentration (EC50) of less than 100 nM. In experiment [2], this compound yielded an IC50 of less than 100 nM.

Take `CC(C)(C)OC(=O)N[C@H]1CCCCC/C=C\[C@@H]2C[C@@]2(C(=O)NS(=O)(=O)Cc2ccccc2Cl)NC(=O)[C@@H]2C[C@@H](OC(=O)N3Cc4cccc(F)c4C3)CN2C1=O` [Compound 510]: the concentration giving a half-maximal response (EC50) in experiment [1] was less than 100 nM. The compound also showed an IC50 in experiment [2] of less than 100 nM.

In turn, `Cc1ccc(ONC(=O)[C@@]23C[C@H]2/C=C\CCCCC[C@H](NC(=O)OC(C)(C)C)C(=O)N2C[C@H](OC(=O)N4Cc5cccc(F)c5C4)C[C@H]2C(=O)N3)cc1C` [Compound 714] gave a half-maximal effective concentration (EC50) in experiment [1] of 1000 to 10000 nM. The IC50 in experiment [2] was less than 100 nM.
